Results published in patent US9090576B2, “2-substituted-p-quinone derivatives for treatment of oxidative stress diseases” (Edison Pharmaceuticals, Inc., priority 2008, dated 2015).

Experiments:
Type in all cases: cell-based
[1] = test system: Human dermal fibroblasts from Friedreich's Ataxia patients; test: Rescue of BSO-stressed FRDA fibroblasts (Calcein AM viability); conditions: BSO-stressed FRDA fibroblasts (GM04078), less than about 150 nM, read-out: EC50, protection against FRDA
Summary of the method: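 Patient FRDA fibroblasts (GM04078) seeded at 3,000 cells/well, given serially diluted compound from a 150 μM master solution, then stressed next day with 1 mM BSO.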

[2] = test system: human dermal fibroblasts from Huntington's patients; test: Rescue of BSO-stressed fibroblasts from Huntington's patients (screen as Example A); conditions: Fibroblast, BSO-stressed Huntington's fibroblasts (GM 04281), less than about 150 nM, read-out: EC50, protection against Huntington's
Summary of the method: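 Coriell Huntington's line GM 04281 plated at 3,000 cells/well and attached overnight at 37 °C. Survival was read by Calcein AM (1.2 μM, 50-70 min, RT) fluorescence at 485/525 nm, giving EC50.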

[3] = test system: human dermal fibroblasts from LHON patients; test: Rescue of BSO-stressed fibroblasts from LHON patients (screen as Example A); conditions: Fibroblast, BSO-stressed LHON fibroblasts (GM03858), less than about 150 nM, read-out: EC50, protection against LHON
Summary of the method: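 LHON patient fibroblasts (Coriell GM03858) at 3,000 cells/well were pre-treated overnight with compounds serially diluted from a 150 μM master solution. Surviving cells were stained with 1.2 μM Calcein AM for 50-70 min at RT and read by fluorescence (485/525 nm), giving EC50.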

[4] = test system: human dermal fibroblasts from Parkinson's Disease patients; test: Rescue of BSO-stressed fibroblasts from Parkinson's Disease patients (screen as Example A); conditions: Fibroblast, BSO-stressed Parkinson's Disease fibroblasts (AG20439), less than about 150 nM, read-out: EC50, protection against PD
Summary of the method: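 Dermal fibroblasts from a Parkinson's Disease patient (Coriell AG20439) were plated at 3,000 cells/well, attached overnight and pre-incubated overnight with serially diluted compounds (150 μM master solution). Survival was read by 1.2 μM calcein AM (50–70 min, RT, 485/525 nm fluorescence) and converted to EC50.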

[5] = test system: human dermal fibroblasts from CoQ10 deficient patients; test: Rescue of BSO-stressed fibroblasts from CoQ10 deficient patients (screen similar to Example A); conditions: Fibroblast, BSO-stressed fibroblasts from CoQ10 deficient patients harboring a CoQ2 mutation, less than about 150 nM, read-out: EC50, protection against CoQ10 deficiency
Method: A culture with FRDA fibroblasts was started from a 1 ml vial with approximately 500,000 cells stored in liquid nitrogen. Cells were propagated in 10 cm cell culture dishes by splitting every third day in a ratio of 1:3 until nine plates were available. Once confluent, fibroblasts were harvested. For 54 micro titer plates (96 well-MTP) a total of 14.3 million cells (passage eight) were re-suspended in 480 ml medium, corresponding to 100 μl medium with 3,000 cells/well. The remaining cells were distributed in 10 cm cell culture plates (500,000 cells/plate) for propagation. The plates were incubated overnight at 37° C. in an atmosphere with 95% humidity and 5% CO2 to allow attachment of the cells to the culture plate.
MTP medium (243 μl) was added to a well of the microtiter plate. The test compounds were unfrozen, and 7.5 μl of a 5 mM stock solution was dissolved in the well containing 243 μl medium, resulting in a 150 μM master solution. Serial dilutions from the master solution were made. The period between the single dilution steps was kept as short as possible (generally less than 1 second).
Plates were kept overnight in the cell culture incubator. The next day, 10 μl of a 10 mM BSO solution were added to the wells, resulting in a 1 mM final BSO concentration. Forty-eight hours later, three plates were examined under a phase-contrast microscope to verify that the cells in the 0% control (wells E1-H1) were clearly dead. The medium from all plates was discarded, and the remaining liquid was removed by gently tapping the plate inversed onto a paper towel.
100 μl of PBS containing 1.2 μM Calcein AM were then added to each well. The plates were incubated for 50-70 minutes at room temperature. After that time the PBS was discarded, the plate gently tapped on a paper towel and fluorescence (excitation/emission wavelengths of 485 nm and 525 nm, respectively) was read on a Gemini fluorescence reader. Data was imported into Microsoft Excel (EXCEL is a registered trademark of Microsoft Corporation for a spreadsheet program) and used to calculate the EC50 concentration for each compound.
Compounds of the invention were tested using a screen similar to the one described in Example A, but substituting FRDA cells with cells obtained from CoQ10 deficient patients harboring a CoQ2 mutation. The compounds were tested for their ability to rescue human dermal fibroblasts from CoQ10 deficient patients from oxidative stress.

Measured: EC50

COc1cccc(NC(=O)CCCC2=C(C)C(=O)C(C)=C(C)C2=O)c1 [N-(3-methoxyphenyl)-4-(2,4,5-trimethyl-3,6-dioxocyclohexa-1,4-dienyl)butanamide]
< 150 nM: all assays above

CC1=C(C)C(=O)C(CCCC(=O)Nc2ccc(C(F)(F)F)cc2)=C(C)C1=O [N-(4-(trifluoromethyl)phenyl)-4-(2,4,5-trimethyl-3,6-dioxocyclohexa-1,4-dienyl)butanamide]
< 150 nM: all assays above

CC1=C(C)C(=O)C(CCCC(=O)NCc2ccc(Cl)cc2)=C(C)C1=O [N-(4-chlorobenzyl)-4-(2,4,5-trimethyl-3,6-dioxocyclohexa-1,4-dienyl)butanamide]
< 150 nM: all assays above

CC1=C(C)C(=O)C(CCCC(=O)NCCc2ccc(Cl)cc2)=C(C)C1=O [N-(4-chlorophenethyl)-4-(2,4,5-trimethyl-3,6-dioxocyclohexa-1,4-dienyl)butanamide]
< 150 nM: all assays above

CC1=C(C)C(=O)C(CCCC(=O)N(C)c2ccc(Cl)cc2)=C(C)C1=O [N-(4-chlorophenyl)-N-methyl-4-(2,4,5-trimethyl-3,6-dioxocyclohexa-1,4-dienyl)butanamide]
< 150 nM: all assays above

CC1=C(C)C(=O)C(CCCC(=O)Nc2ccc(C#N)cc2)=C(C)C1=O [N-(4-cyanophenyl)-4-(2,4,5-trimethyl-3,6-dioxocyclohexa-1,4-dienyl)butanamide]
< 150 nM: all assays above

CC1=C(C)C(=O)C(CCCC(=O)NCc2ccc(F)cc2)=C(C)C1=O [N-(4-fluorobenzyl)-4-(2,4,5-trimethyl-3,6-dioxocyclohexa-1,4-dienyl)butanamide]
< 150 nM: all assays above

CC1=C(C)C(=O)C(CCCC(=O)NCCc2ccc(F)cc2)=C(C)C1=O [N-(4-fluorophenethyl)-4-(2,4,5-trimethyl-3,6-dioxocyclohexa-1,4-dienyl)butanamide]
< 150 nM: all assays above

CC1=C(C)C(=O)C(CCCC(=O)Nc2ccc(F)cc2)=C(C)C1=O [N-(4-fluorophenyl)-4-(2,4,5-trimethyl-3,6-dioxocyclohexa-1,4-dienyl)butanamide]
< 150 nM: all assays above

CC1=C(C)C(=O)C(CCCC(=O)N(C)c2ccc(F)cc2)=C(C)C1=O [N-(4-fluorophenyl)-N-methyl-4-(2,4,5-trimethyl-3,6-dioxocyclohexa-1,4-dienyl)butanamide]
< 150 nM: all assays above

CC1=C(C)C(=O)C(CCCC(=O)Nc2ccc3c(c2)OCO3)=C(C)C1=O [N-(benzo[d][1,3]dioxol-5-yl)-4-(2,4,5-trimethyl-3,6-dioxocyclohexa-1,4-dienyl)butanamide]
< 150 nM: all assays above

CCN(Cc1ccccc1)C(=O)CCCC1=C(C)C(=O)C(C)=C(C)C1=O [N-benzyl-N-ethyl-4-(2,4,5-trimethyl-3,6-dioxocyclohexa-1,4-dienyl)butanamide]
< 150 nM: all assays above

CC1=C(C)C(=O)C(CCCC(=O)N(Cc2ccccc2)C(C)C)=C(C)C1=O [N-benzyl-N-isopropyl-4-(2,4,5-trimethyl-3,6-dioxocyclohexa-1,4-dienyl)butanamide]
< 150 nM: all assays above

CC1=C(C)C(=O)C(CCCC(=O)N(C)Cc2ccccc2)=C(C)C1=O [N-benzyl-N-methyl-4-(2,4,5-trimethyl-3,6-dioxocyclohexa-1,4-dienyl)butanamide]
< 150 nM: all assays above

CC1=C(C)C(=O)C(CCCC(=O)N(C)c2ccccc2)=C(C)C1=O [N-methyl-N-phenyl-4-(2,4,5-trimethyl-3,6-dioxocyclohexa-1,4-dienyl)butanamide]
< 150 nM: all assays above

CC1=C(C)C(=O)C(CCCC(=O)Nc2ccc(C)cc2)=C(C)C1=O [N-p-tolyl-4-(2,4,5-trimethyl-3,6-dioxocyclohexa-1,4-dienyl)butanamide]
< 150 nM: all assays above

CC1=C(C)C(=O)C(CCCC(=O)Nc2ccccc2)=C(C)C1=O [N-phenyl-4-(2,4,5-trimethyl-3,6-dioxocyclohexa-1,4-dienyl)butanamide]
< 150 nM: all assays above
